Reference: PubChem BioAssay (NCI)
Values joined by “and” are separate entries in the source; they are usually repeats but may differ in a detail not shown here. Equal entries are not always repeated.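 Values below derive from 48-hour exposures of cells grown in 96-well plates, with endpoints linearly interpolated between the two concentrations bracketing the appropriate inhibition level. GI50 = concentration required for 50% inhibition of growth. TGI marks complete inhibition of growth.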

How the values were obtained:
Test in all cases: NCI anticancer screen, dose series, 48 h
[1] = system: HOP-92 NSCLC
[2] = system: CCRF-CEM leukemia
[3] = system: SW-620 colon
[4] = system: SK-OV-3 ovarian
[5] = system: SN12C renal
[6] = system: OVCAR-3 ovarian
[7] = system: MCF7 breast
[8] = system: NCI/ADR-RES ovarian
[9] = system: DU-145 prostate
[10] = system: T-47D breast

Structure (SMILES)	TGI [1]	TGI [2]	TGI [3]	TGI [4]	TGI [5]	TGI [6]	GI50 [7]	TGI [7]	GI50 [3]	GI50 [8]	TGI [8]	GI50 [9]	TGI [9]	GI50 [5]	GI50 [6]	GI50 [10]	TGI [10]	GI50 [1]	GI50 [2]	GI50 [4]
O=C(O)c1ccccc1NC(=O)C1CCCCC1	> 100 µM	> 100 µM	> 100 µM	> 100 µM	> 100 µM	> 100 µM														
COc1ccc(Nc2c3ccccc3nc3[nH]c4ccccc4c23)cc1			> 50 µM		> 50 µM	> 50 µM	7.95 µM	> 50 µM	9.89 µM	18.9 µM	> 50 µM	6.47 µM	33.9 µM	18.5 µM	19.4 µM					
CCN(CC)CCSCCCNc1c2ccc(Cl)cc2nc2ccc(OC)cc12	3.41 µM	4.72 µM	3.33 µM	3.92 µM	3.48 µM	4.18 µM	0.791 µM	3.26 µM	0.511 µM	1.15 µM	3.7 µM	0.633 µM	3.01 µM	1.04 µM	1.3 µM	2.05 µM	4.82 µM	1.64 µM	1.26 µM	1.56 µM
CC(=O)Oc1ccc(C(c2ccc(OC(C)=O)cc2)c2ccccn2)cc1	34.3 µM and > 94.1 µM	> 100 µM	> 100 µM	> 100 µM and 98.3 µM	> 100 µM	98.9 µM and 23.2 µM	0.516 µM	> 100 µM		0.908 µM	> 100 µM	98.2 µM	> 100 µM	0.558 µM	9.94 µM	0.204 µM	0.532 µM and 1.19 µM	0.861 µM	43 µM	31.7 µM
c1ccc2c(c1)C1=NCCN1c1ccccc1-2	21.7 µM	5.98 µM	11.6 µM	29.9 µM	9.92 µM	6.82 µM														
O=C(CC1C(=O)Nc2ccccc2S1=O)Nc1ccc(Cl)cc1 (stereo not drawn)	83.4 µM		> 100 µM	63.9 µM	> 100 µM	> 100 µM														
COC1OC2COC(c3ccccc3)OC2C(O)C1Br (stereo not drawn)	> 100 µM	> 100 µM	> 100 µM		> 100 µM	> 100 µM														
CC1=C(/C=C/C(C)=C/C=C/C(C)=C/CO)C(C)(C)CCC1		46.4 µM	38.8 µM	> 100 µM	60.8 µM	28.4 µM					43.1 µM		> 100 µM				96.2 µM			
O=C1C=CC(CC(=O)c2ccc3ccccc3c2)O1 (stereo not drawn)	47 µM	63.4 µM	49.5 µM	> 100 µM	36 µM	41.6 µM														
COc1cc(Cl)cc(-c2nn(-c3cccc(NC(=O)Nc4ccc(Cl)c(C(F)(F)F)c4)c3)cc2-c2ccncc2)c1		3.65 µM	10.5 µM	9.85 µM	8.21 µM	2.66 µM	1.01 µM	11 µM	1.61 µM	1.77 µM	11.6 µM	1.86 µM	14 µM	1.56 µM	0.451 µM	1.25 µM	8.02 µM		0.613 µM	3.15 µM
CC12Oc3ccc4ccccc4c3CC1Cc1c(ccc3ccccc13)O2 (stereo not drawn)	11 µM		> 100 µM																	
C[C@H]1C(=O)CC[C@]2(C)CCC(C(C)(C)O)CC12O (stereo partly drawn)	> 100 µM	> 100 µM	> 100 µM	> 100 µM	> 100 µM	> 100 µM														
COc1ccc(-c2nn(-c3cccc(NC(=O)c4ccc(N5CCOCC5)c(C(F)(F)F)c4)c3)cc2-c2ccncc2)cc1Cl		> 50 µM	> 50 µM	> 50 µM	> 50 µM		3.11 µM	> 50 µM	21.3 µM	3.41 µM	24.5 µM	> 50 µM	> 50 µM	> 50 µM		4.5 µM	> 50 µM		2.92 µM	32.8 µM
O=[N+]([O-])c1ccc(Cl)cc1C1SCc2nc3ccccc3n21 (stereo not drawn)		> 100 µM	> 100 µM	> 100 µM	> 100 µM	> 100 µM														
CCn1c2ccccc2c2cc(C(O)c3cccc4ncccc34)ccc21 (stereo not drawn)	4.98 µM	> 100 µM	> 100 µM	> 100 µM	6.24 µM	39.9 µM	0.0331 µM	20.2 µM	0.0399 µM	0.0396 µM	13.7 µM	0.0828 µM	4.78 µM	0.0591 µM	0.0422 µM			0.0324 µM	0.0484 µM	0.0545 µM
O=C1OC(OCC#CCOC2OC(=O)C(Cl)=C2Cl)C(Cl)=C1Cl (stereo not drawn)		4.63 µM	18.4 µM		32.5 µM	30.7 µM		21.8 µM			75.3 µM		38.2 µM				36.7 µM			
O=S(=O)(C/C(=N\O)c1ccccc1)c1ccccc1	> 100 µM	> 100 µM	> 100 µM	> 100 µM	> 100 µM	> 100 µM														
Cc1cc2c(C)n(Cc3ccc(Cl)cc3Cl)nc2c(C(=O)O)c1C	> 100 µM	> 100 µM	> 100 µM	> 100 µM	> 100 µM	> 100 µM														
O=C1c2nc3n(c2C(=O)c2c1nc1n2CCC1)CCC3	26.3 µM	31.4 µM	17.2 µM	92.2 µM	14.5 µM	9.74 µM and 7.87 µM								9.48 µM	3.42 µM					
Cc1ccccc1-n1c(C)nc(-c2ccccc2)cc1=O	> 100 µM	> 100 µM	> 100 µM	> 100 µM	> 100 µM	> 100 µM														
Nn1c(N=Nc2c(O)[nH]c3c(Cl)cc(Cl)cc23)n[nH]c1=S	> 100 µM	> 100 µM	> 100 µM	> 100 µM	> 100 µM	> 100 µM														
NCCSCCc1ccccc1	> 100 µM		> 100 µM	> 100 µM	> 100 µM	> 100 µM		> 100 µM			> 100 µM		> 100 µM				> 100 µM			
COC1=C2CC(C)CC(OC)C(O)C(C)/C=C(\C)C(OC(N)=O)C(OC)/C=C\C=C(/C)C(=O)NC(=C(/C=N/N3CCCCC3)C1=O)C2=O (stereo not drawn)	35.4 µM	7.85 µM	8.7 µM	55.7 µM	15.5 µM	4.62 µM							32.9 µM							
